Reference: patent US20190085404A1, “METHODS OF IDENTIFYING AND TREATING IMMUNE CHECKPOINT INHIBITOR-RESPONSIVE NEOPLASMS AND CELLS, TRANSGENIC ANIMALS AND KITS FOR USE THEREIN” (The Board of Trustees of the Leland Stanford Junior …, priority 2016, published 2019)

Experiments:
[1] = system: human T-ALL cell line CCRF-CEM; test: CD47, PD-L1 and MYC expression in CCRF-CEM cells after MYC inhibition; type: cell-based
Procedure: (§1) Hematopoietic tumor cell lines (MYC T-ALL 4188 cells derived from the transgenic mouse model, human P493-6, human T-ALL Jurkat, and human T-ALL CCRF-CEM) were grown in RPMI 1640 supplemented with 10% FBS, 1% penicillin/streptomycin, 50 μM 2-mercaptoethanol at 37° C. in 5% CO2. Solid human tumor cell lines (H1299, SKMEL28), mouse MYC HCC, and human HEPG2 were grown in DMEM supplemented with 10% FBS and 1% penicillin/streptomycin at 37° C. in 5% CO2. To turn off expression of the MYC transgene, cells were treated with 20 ng/mL Dox. Primary human T-ALL cells were obtained from four deidentified patient samples and were cultured as previously described (Bruserud et al. 2003). Briefly, cells were cultured in StemSpan H3000 (StemCell) supplemented with human stem cell factor (50 ng/ml), human IL-7 (20 ng/ml), human IL-3 (20 ng/ml), and human FLT3 ligand (20 ng/ml) (Peprotech). Human cell lines were purchased from ATCC. […]
(§2) All tissues and cells were flash-frozen in liquid nitrogen and stored at −80° C. until RNA preparation. […] Data was analyzed using the cycle threshold method (normalized to UBC). […]
(§3) Tissues were manually dissociated between microscope slides and strained to remove debris. […] Labeled cells were analyzed on a FACSCalibur (Becton Dickinson), and data was analyzed using FlowJo (Treestar). […]
(§4) FIG. 1A: Flow cytometry median fluorescence intensity (MFI) was used to determine the relative cell surface expression of CD47, PD-L1, and other immune proteins following MYC inactivation in MYC T-ALL 4188 cells in vitro (n=3). FIG. 1B: Tumors were harvested from primary MYC-driven lymphomas 0 or 4 days following MYC inactivation. mRNA and protein levels were quantified by qPCR and flow cytometry MFI (n=3 tumors per condition). […] FIG. 1C: CD47 and PD-L1 protein levels in Jurkat and CCRF-CEM cells were quantified by flow cytometry MFI following MYC inhibition by conditional shRNA knockdown or 10 μM JQ1 treatment (n=3 biological replicates). […]

[2] = system: human T-ALL cell line Jurkat; test: CD47, PD-L1 and MYC expression in Jurkat cells after MYC inhibition; type: cell-based
Procedure: as §1, §2, §3, §4

[3] = system: human melanoma cell line SKMEL28; test: CD47 and PD-L1 mRNA and protein in SKMEL28 cells after MYC inactivation; type: cell-based; conditions: 48 hours, 10 μM JQ1 or MYC shRNA knockdown
Procedure: (§5) Hematopoietic tumor cell lines (MYC T-ALL 4188 cells derived from the transgenic mouse model, human P493-6, human T-ALL Jurkat, and human T-ALL CCRF-CEM) were grown in RPMI 1640 supplemented with 10% FBS, 1% penicillin/streptomycin, 50 μM 2-mercaptoethanol at 37° C. in 5% CO2. Solid human tumor cell lines (H1299, SKMEL28), mouse MYC HCC, and human HEPG2 were grown in DMEM supplemented with 10% FBS and 1% penicillin/streptomycin at 37° C. in 5% CO2. To turn off expression of the MYC transgene, cells were treated with 20 ng/mL Dox. Primary human T-ALL cells were obtained from four deidentified patient samples and were cultured as previously described (Bruserud et al. 2003). Briefly, cells were cultured in StemSpan H3000 (StemCell) supplemented with human stem cell factor (50 ng/ml), human IL-7 (20 ng/ml), human IL-3 (20 ng/ml), and human FLT3 ligand (20 ng/ml) (Peprotech). Human cell lines were purchased from ATCC.
(§6) shRNA-mediated knockdowns were performed with the pLKO.1 lentiviral vector containing either control, CD47, or PD-L1-specific shRNA. shRNA-mediated knockdown of human MYC was performed with the pLKO.1 lentiviral vector containing a scrambled control or MYC shRNA (Sigma). PD-L1 shRNA on a pLKO.1-puro backbone was purchased from Sigma and CD47 shRNA (Sigma) was cloned into a pLKO.1-Hygro backbone (Addgene). The plasmids were transfected into packaging cells and virus-containing medium supernatants were used to infect tumor cells using polybrene methodology. For conditional knockdowns, stable cell lines were generated and the time course following MYC inactivation with 20 ng/mL Dox is indicated. For stable knockdowns, the time course is indicated as the time post-viral infection.
(§7) All tissues and cells were flash-frozen in liquid nitrogen and stored at −80° C. until RNA preparation. RNA was isolated using the TRIzol Reagent (Invitrogen) according to manufacturer instructions. cDNA was synthesized using SuperScriptIII (ThermoFisher). qPCR was performed using specific primers (Table 51) and the SYBR Green qPCR Kit (Roche) in an Applied Biosystems Real-Time PCR System (Life Technologies) with QuantStudio12K Flex Software. Data was analyzed using the cycle threshold method (normalized to UBC). A minimum of 3 biological and 3 technical replicates were used for all qPCR experiments.
as §3
(§8) FIG. 2A and FIG. 2B: The mRNA and protein levels of MYC, CD47, and PD-L1 in human melanoma SKMEL28 and human NSCLC H1299 cells were determined by qPCR and flow cytometry MFI, respectively, 48 hours after MYC inactivation in vitro. […]

[4] = system: human non-small cell lung cancer (NSCLC) cell line H1299; test: CD47 and PD-L1 mRNA and protein in H1299 cells after MYC inactivation; type: cell-based; conditions: 48 hours, 10 μM JQ1 or MYC shRNA knockdown
Procedure: as §5, §6, §7, §3, §8

[5] = system: primary human T-ALL cells; test: CD47, PD-L1, CD8 and MYC expression in primary human T-ALL samples; type: cell-based; conditions: 48 h; for CD8 expression / CD47 cell surface expression / PD-L1 cell surface expression: four primary human T-ALL samples, flow cytometry MFI, 10 μM JQ1, 10 μM cisplatin or shRNA
Procedure: as §5, §6, §7
(§9) Tissues were manually dissociated between microscope slides and strained to remove debris. Lysis buffer (0.15 M NH4Cl, 10 mM KHCO3, 0.1 mM EDTA pH 7.3) was used to remove red blood cells. Cells were washed and resuspended in cold flow cytometry buffer (1% FBS, 0.1% sodium azide in PBS). Staining was performed according to manufacturer instructions with the indicated antibodies (eBioscience). Labeled cells were analyzed on a FACSCalibur (Becton Dickinson), and data was analyzed using FlowJo (Treestar). Each plot is representative of three or more animals. Annexin-V and 7-AAD were used according to manufacturer's protocol (eBioscience).
FIG. 6A-6B: MYC mRNA levels before and after treatment with shRNA against MYC or treatment with JQ1. MYC mRNA was measured by qPCR in human T-ALL cell lines (A, n=3) and primary human T-ALL (B, n=4) cells following MYC inhibition by shRNA or JQ1 treatment after the indicated number of hours (0-48 h for human T-ALL cell lines, 48 h for primary T-ALL).
FIG. 9A: CD47 and PD-L1 protein levels in primary human T-ALL tumor samples were quantified by flow cytometry, following 48 h treatment with control scramble shRNA or MYC-targeting shRNA. FIG. 9B: CD47, PD-L1, or CD8 protein levels in primary human T-ALL tumor samples were quantified by flow cytometry MFI, following 48 h treatment with control scramble shRNA or MYC-targeting shRNA, or treatment with 10 μM JQ1 or 10 μM cisplatin (n=4 distinct patient samples). Means±SEM are shown.

MYC T-ALL 4188 cells = test: Chemotherapeutic drug treatment of MYC T-ALL cells, surface protein levels by flow cytometry; type: cell-based, mouse; conditions: for CD3 expression / CD8 expression / CD25 expression / CD69 expression / CD47 expression / PD-L1 expression: MYC T-ALL 4188 cells, 10 μM; for CD3 expression / CD8 expression / CD25 expression / CD69 expression: flow cytometry; for CD47 expression / PD-L1 expression: flow cytometry MFI; for tumor cell death: MYC T-ALL cells, 10 μM each
Procedure: as §5, §9
FIG. 7A: CD47 and PD-L1 protein levels in MYC T-ALL 4188 cells treated with prednisone, cytoxan, cisplatin, or vincristine (10 μM each) were quantified by flow cytometry MFI. Means±SEM are shown, n=3. FIG. 7B-7E: CD3, CD8, CD25, and CD69 protein levels in MYC T-ALL 4188 cells treated as in FIG. 7A were quantified by flow cytometry. Means±SEM are shown (n=3).

[6] = system: cells derived from mouse MYC-driven HCC; test: CD47 and PD-L1 protein levels in mouse MYC-driven HCC cells after chemotherapy treatment; type: cell-based; conditions: flow cytometry MFI
Procedure: as §1, with “2003).” for “2003). Briefly, cells were cultured in StemSpan H3000 (StemCell) supplemented with human stem cell factor (50 ng/ml), human IL-7 (20 ng/ml), human IL-3 (20 ng/ml), and human FLT3 ligand (20 ng/ml) (Peprotech). Human cell lines were purchased from ATCC.”
as §3
FIG. 8A: CD47 and PD-L1 protein levels in cells derived from mouse MYC-driven HCC, following MYC inactivation or chemotherapy treatment, were quantified by flow cytometry MFI (n=3). FIG. 8B: CD47 and PD-L1 mRNA levels were quantified by qPCR and protein levels were quantified by flow cytometry in primary tumors from mouse MYC-driven HCC, following MYC inactivation (n=3 tumors per condition). […]

[7] = CCRF-CEM, protein by flow cytometry MFI, conditional shRNA knockdown or 10 μM JQ1
[8] = human T-ALL cell lines, qPCR, 0-48 h
[9] = Jurkat, protein by flow cytometry MFI, conditional shRNA knockdown or 10 μM JQ1

Row | SMILES | CD8 expression [5] | CD47 cell surface expression [5] | PD-L1 cell surface expression [5] | CD3 expression (MYC T-ALL 4188 cells) | CD8 expression (MYC T-ALL 4188 cells) | CD25 expression (MYC T-ALL 4188 cells) | CD69 expression (MYC T-ALL 4188 cells) | CD47 expression (MYC T-ALL 4188 cells) | PD-L1 expression (MYC T-ALL 4188 cells) | tumor cell death (MYC T-ALL 4188 cells) | also measured
1 | Cc1sc2c(c1C)C(c1ccc(Cl)cc1)=N[C@@H](CC(=O)OC(C)(C)C)c1nnc(C)n1-2 [JQ1] | unaffected | reduced | reduced | – | – | – | – | – | – | – | expression of CD47 [1, 7]: reduced; expression of PD-L1 [1, 7]: reduced; expression of MYC mRNA [1, 8]: reduced; expression of CD47 [2, 9]: reduced; expression of PD-L1 [2, 9]: reduced; expression of MYC mRNA [2, 8]: reduced; expression of CD47 protein ([3]; flow cytometry MFI): reduced; expression of PD-L1 protein ([3]; flow cytometry MFI): reduced; expression of CD47 mRNA ([3]; qPCR): reduced; expression of PD-L1 mRNA ([3]; qPCR): reduced; expression of CD47 protein ([4]; flow cytometry MFI): reduced; expression of PD-L1 protein ([4]; flow cytometry MFI): reduced; expression of CD47 mRNA ([4]; qPCR): reduced; expression of PD-L1 mRNA ([4]; qPCR): reduced; expression of MYC mRNA ([5]; primary human T-ALL cells, qPCR): reduced
2 | N.N.[Cl][Pt][Cl] [cisplatin] | unaffected | increased | increased | no effect | no effect | no effect | no effect | either unaffected or showed increased expression | either unaffected or showed increased expression | tumor cell death | expression of CD47 protein [6]: unaffected; expression of PD-L1 protein [6]: unaffected
3 | O=P1(N(CCCl)CCCl)NCCCO1 (stereo not drawn) [cytoxan] | – | – | – | no effect | no effect | no effect | no effect | either unaffected or showed increased expression | either unaffected or showed increased expression | tumor cell death | –
4 | C[C@]12C=CC(=O)C=C1CC[C@@H]1[C@@H]2C(=O)C[C@@]2(C)[C@H]1CC[C@]2(O)C(=O)CO [prednisone] | – | – | – | no effect | no effect | no effect | no effect | either unaffected or showed increased expression | either unaffected or showed increased expression | tumor cell death | –
5 | CC[C@]1(O)C[C@H]2CN(CCc3c([nH]c4ccccc34)[C@@](C(=O)OC)(c3cc4c(cc3OC)N(C=O)[C@H]3[C@@](O)(C(=O)OC)[C@H](OC(C)=O)[C@]5(CC)C=CCN6CC[C@]43[C@@H]65)C2)C1 [vincristine] | – | – | – | no effect | no effect | no effect | no effect | either unaffected or showed increased expression | either unaffected or showed increased expression | tumor cell death | –
